Measurements published in patent US11000033B2, “Ketone or oxime compound, and herbicide” (NISSAN CHEMICAL CORPORATION, priority 2014, dated 2021).

What was measured:
Type in all cases: in vivo
Settings in all cases: 320 g/ha, 3 weeks after application
[1] = system: Digitaria ciliaris; experiment: Test Example 5: herbicidal effect by foliage application, plastic box (symbol F)
Description: (§1) Herbicidal Effect Test by Foliage Application
(§2) Sterilized diluvial soil was placed in a plastic box having a length of 21 cm, a width of 13 cm, and a depth of 7 cm. Each of the seeds of Digitaria ciliaris, Setaria viridis, Echinochloa crus-galli var. crus-galli, Avena fatua, Alopecurus myosuroides, Lolium multiflorum Lam., Apera spica-venti, Abutilon theophrasti, Amaranthus retroflexus, Chenopodium album, Stellaria media, Galium spurium, Veronica persica, corn, soybean, rice plant, wheat, beet, and rapeseed was sowed in a spot-like manner and was covered with the soil of a thickness of about 1.5 cm. Thereafter, the plants were grown in the greenhouse of 25° C. to 30° C. After the plants were grown for 14 days, the emulsion agent of the compound of the present invention prepared in accordance with Formulation Example 2 was diluted with water so as to be a predetermined herbicide amount and the diluted emulsion agent was uniformly applied to a foliage part with a small-size spray. 3 weeks later from the herbicide application, the effect to each plant was investigated in accordance with the criteria of Test Example 1.

[2] = system: Setaria viridis; experiment: Test Example 5: herbicidal effect by foliage application, plastic box (symbol G)
Description: as §1, §2

[3] = system: Avena fatua; experiment: Test Example 5: herbicidal effect by foliage application, plastic box (symbol I)
Description: as §1, §2

[4] = system: Alopecurus myosuroides; experiment: Test Example 5: herbicidal effect by foliage application, plastic box (symbol J)
Description: as §1, §2

[5] = system: Lolium multiflorum Lam.; experiment: Test Example 5: herbicidal effect by foliage application, plastic box (symbol K)
Description: as §1, §2

[6] = system: Abutilon theophrasti; experiment: Test Example 5: herbicidal effect by foliage application, plastic box (symbol M)
Description: as §1, §2

[7] = system: Amaranthus retroflexus; experiment: Test Example 5: herbicidal effect by foliage application, plastic box (symbol N)
Description: as §1, §2

[8] = system: Chenopodium album; experiment: Test Example 5: herbicidal effect by foliage application, plastic box (symbol O)
Description: as §1, §2

[9] = system: Stellaria media; experiment: Test Example 5: herbicidal effect by foliage application, plastic box (symbol P)
Description: as §1, §2

[10] = system: Galium spurium; experiment: Test Example 5: herbicidal effect by foliage application, plastic box (symbol Q)
Description: as §1, §2

[11] = system: Veronica persica; experiment: Test Example 5: herbicidal effect by foliage application, plastic box (symbol R)
Description: as §1, §2

[12] = system: corn; experiment: Test Example 5: effect on crop by foliage application, plastic box (symbol c)
Description: as §1
(§3) Sterilized diluvial soil was placed in a plastic box having a length of 21 cm, a width of 13 cm, and a depth of 7 cm. Each of the seeds of Digitaria ciliaris, Setaria viridis, Echinochloa crus-galli var. crus-galli, Avena fatua, Alopecurus myosuroides, Lolium multiflorum Lam., Apera spica-venti, Abutilon theophrasti, Amaranthus retroflexus, Chenopodium album, Stellaria media, Galium spurium, Veronica persica, corn, soybean, rice plant, wheat, beet, and rapeseed was sowed in a spot-like manner and was covered with the soil of a thickness of about 1.5 cm. Thereafter, the plants were grown in the greenhouse of 25° C. to 30° C.

[13] = system: soybean; experiment: Test Example 5: effect on crop by foliage application, plastic box (symbol d)
Description: as §1, §3

[14] = system: rice plant; experiment: Test Example 5: effect on crop by foliage application, plastic box (symbol b)
Description: as §1, §3

[15] = system: wheat; experiment: Test Example 5: effect on crop by foliage application, plastic box (symbol e)
Description: as §1, §3

[16] = system: beet; experiment: Test Example 5: effect on crop by foliage application, plastic box (symbol f)
Description: as §1, §3

[17] = system: rapeseed; experiment: Test Example 5: effect on crop by foliage application, plastic box (symbol g)
Description: as §1, §3

Q: What does the source list for CON=C(C)CC1CC(OC)=C(c2c(C)cc(-c3ccc(SC)cc3)cc2C)C1=O (mixture of isomers) [6-021]?
A: F: Digitaria ciliaris, herbicidal effect grade [1]: 0 (Herbicidal ratio of 5% or lower (almost no effect)); G: Setaria viridis, herbicidal effect grade [2]: 3 (Herbicidal ratio of 40% or higher and lower than 70%); I: Avena fatua, herbicidal effect grade [3]: 1 (Herbicidal ratio of 5% or higher and lower than 20%); J: Alopecurus myosuroides, herbicidal effect grade [4]: 3 (Herbicidal ratio of 40% or higher and lower than 70%); K: Lolium multiflorum Lam., herbicidal effect grade [5]: 5 (Herbicidal ratio of 90% or more (almost completely withered)); M: Abutilon theophrasti, herbicidal effect grade [6]: 0 (Herbicidal ratio of 5% or lower (almost no effect)); N: Amaranthus retroflexus, herbicidal effect grade [7]: 0 (Herbicidal ratio of 5% or lower (almost no effect)); O: Chenopodium album, herbicidal effect grade [8]: 0 (Herbicidal ratio of 5% or lower (almost no effect)); P: Stellaria media, herbicidal effect grade [9]: 0 (Herbicidal ratio of 5% or lower (almost no effect)); Q: Galium spurium, herbicidal effect grade [10]: 0 (Herbicidal ratio of 5% or lower (almost no effect)); R: Veronica persica, herbicidal effect grade [11]: 0 (Herbicidal ratio of 5% or lower (almost no effect)); c: corn, effect on crop grade [12]: 0 (Herbicidal ratio of 5% or lower (almost no effect)); d: soybean, effect on crop grade [13]: 0 (Herbicidal ratio of 5% or lower (almost no effect)); b: directly sowed rice plant, effect on crop grade [14]: 0 (Herbicidal ratio of 5% or lower (almost no effect)); e: wheat, effect on crop grade [15]: 0 (Herbicidal ratio of 5% or lower (almost no effect)); f: beet, effect on crop grade [16]: 0 (Herbicidal ratio of 5% or lower (almost no effect)); g: rapeseed, effect on crop grade [17]: 3 (Herbicidal ratio of 40% or higher and lower than 70%)
